Experimental data from patent publication US10988477B2 (Merck Patent GmbH, priority 2018, dated 2021).

target: GCN2 kinase (Homo sapiens, UniProt Q9P2K8); experiment: GCN2 enzyme inhibition assay (Transcreener ADP2 fluorescence polarization); format: biochemical; details: Enzyme activity for compounds of Formula IV; Ki(app), 280 μM ATP, 25° C.
Method in brief: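 ADP formation read by Transcreener FP after a 1 h, 25 °C kinase reaction containing 280 μM ATP, 200 μM (RS)7 substrate and 4 nM GCN2, pH 7.5 Tris buffer. Compounds (0–8 μM final) were added 10 min before ATP. Percent inhibition gave IC50 and apparent Ki via tight-binding fit.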

Chain of GCN2 kinase (Q9P2K8 whole entry): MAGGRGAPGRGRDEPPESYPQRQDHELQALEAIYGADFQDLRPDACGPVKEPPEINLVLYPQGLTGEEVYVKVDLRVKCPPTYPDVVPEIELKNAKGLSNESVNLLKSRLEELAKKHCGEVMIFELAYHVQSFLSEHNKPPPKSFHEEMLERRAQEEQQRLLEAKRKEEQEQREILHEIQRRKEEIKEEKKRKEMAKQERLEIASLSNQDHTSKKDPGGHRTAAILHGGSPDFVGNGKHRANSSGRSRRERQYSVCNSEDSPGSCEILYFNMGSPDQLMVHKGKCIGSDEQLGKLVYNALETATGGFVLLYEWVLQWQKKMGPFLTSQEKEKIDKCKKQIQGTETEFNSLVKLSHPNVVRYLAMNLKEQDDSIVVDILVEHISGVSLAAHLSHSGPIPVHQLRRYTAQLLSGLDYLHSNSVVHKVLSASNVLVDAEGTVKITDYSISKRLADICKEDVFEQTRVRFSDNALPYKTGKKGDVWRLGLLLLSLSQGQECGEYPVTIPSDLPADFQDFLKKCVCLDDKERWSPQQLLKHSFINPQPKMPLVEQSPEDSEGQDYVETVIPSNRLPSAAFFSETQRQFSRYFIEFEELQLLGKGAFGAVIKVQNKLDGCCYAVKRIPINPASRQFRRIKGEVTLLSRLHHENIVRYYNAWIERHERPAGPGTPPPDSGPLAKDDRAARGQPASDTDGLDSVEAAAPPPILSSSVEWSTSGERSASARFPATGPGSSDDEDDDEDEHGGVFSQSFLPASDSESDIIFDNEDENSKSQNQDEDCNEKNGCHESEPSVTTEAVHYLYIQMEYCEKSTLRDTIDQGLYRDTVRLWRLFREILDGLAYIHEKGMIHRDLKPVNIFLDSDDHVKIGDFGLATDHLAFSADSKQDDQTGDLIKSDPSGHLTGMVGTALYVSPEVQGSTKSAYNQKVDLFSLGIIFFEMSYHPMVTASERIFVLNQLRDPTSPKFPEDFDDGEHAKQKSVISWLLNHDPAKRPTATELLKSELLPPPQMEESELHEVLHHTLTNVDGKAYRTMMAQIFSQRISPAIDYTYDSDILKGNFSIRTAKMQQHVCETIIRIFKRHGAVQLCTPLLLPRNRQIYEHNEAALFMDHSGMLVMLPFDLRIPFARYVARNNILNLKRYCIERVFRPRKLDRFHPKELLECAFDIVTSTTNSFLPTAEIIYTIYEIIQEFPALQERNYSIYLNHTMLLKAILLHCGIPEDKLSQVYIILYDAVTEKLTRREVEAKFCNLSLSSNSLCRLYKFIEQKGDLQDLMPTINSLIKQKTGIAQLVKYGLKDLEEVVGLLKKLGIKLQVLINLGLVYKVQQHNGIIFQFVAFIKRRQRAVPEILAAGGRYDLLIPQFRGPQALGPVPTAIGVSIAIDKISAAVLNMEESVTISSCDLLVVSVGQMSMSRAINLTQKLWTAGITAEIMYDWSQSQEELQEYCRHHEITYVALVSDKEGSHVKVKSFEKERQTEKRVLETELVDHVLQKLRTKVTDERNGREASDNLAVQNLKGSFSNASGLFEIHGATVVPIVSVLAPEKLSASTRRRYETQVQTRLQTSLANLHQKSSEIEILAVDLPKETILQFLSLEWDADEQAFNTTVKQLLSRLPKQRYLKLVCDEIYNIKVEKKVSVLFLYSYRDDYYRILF

Ki, > 1000 nM:
CS(=O)(=O)N=S1(=O)CCN(c2ccnc(-c3cnc4cnc(C(F)(F)F)cn34)n2)CC1 [IV-727]

Ki, 10 to 100 nM:
C[C@H]1NCCN(c2ccnc(-c3cnc4cnc(C(F)(F)F)cn34)n2)[C@H]1c1cn[nH]c1 (relative stereo) [IV-208, Cis-3-(4-(3-Methyl-2-(1H-pyrazol-4-yl)piperazin-1-yl)pyrimidin-2-yl)-6-(trifluoromethyl)imidazo[1,2-a]pyrazine]
CC1CCCN(c2ccnc(-c3cnc4cnc(C(N)=O)cn34)n2)C1 (centres unmarked) [IV-187, 3-(4-(3-Methylpiperidin-1-yl)pyrimidin-2-yl)imidazo[1,2-a]pyrazine-6-carboxamide]
CC1CN(c2nccc(-c3cnc4cnc(Br)cn34)n2)C(C)C(c2cn[nH]c2)N1 (centres unmarked) [IV-383, 6-Bromo-3-(2-(2,5-dimethyl-3-(1H-pyrazol-4-yl)piperazin-1-yl)pyrimidin-4-yl)imidazo[1,2-a]pyrazine]
C[C@H]1[C@H](c2cn[nH]c2)OCCN1c1ccnc(-c2cnc3cnc(C#N)cn23)n1 (racemic) [IV-281, Trans-3-(4-(3-Methyl-2-(1H-pyrazol-4-yl)morpholino)pyrimidin-2-yl)imidazo[1,2-a]pyrazine-6-carbonitrile]
Cc1n[nH]c(C)c1C1CCCN(c2ccnc(-c3cnc4cnc(C(F)(F)F)cn34)n2)C1 (single isomer, unassigned) [IV-477, 3-(4-(3-(3,5-Dimethyl-1H-pyrazol-4-yl)piperidin-1-yl)pyrimidin-2-yl)-6-(trifluoromethyl)imidazo[1,2-a]pyrazine]

Ki, 100 to 1000 nM:
FC(F)(F)c1cn2c(-c3nccc(N4CCC(C5CCCC5)C4)n3)cnc2cn1 (centres unmarked) [IV-644, 3-(4-(3-Cyclopentylpyrrolidin-1-yl)pyrimidin-2-yl)-6-(trifluoromethyl)imidazo[1,2-a]pyrazine]
FC(F)(F)c1cn2c(-c3nccc(N4CCCC(c5nnco5)C4)n3)cnc2cn1 (centres unmarked) [IV-656, 2-(1-(2-(6-(Trifluoromethyl)imidazo[1,2-a]pyrazin-3-yl)pyrimidin-4-yl)piperidin-3-yl)-1,3,4-oxadiazole]
OCCN1CCN(c2ccnc(-c3cnc4cnc(C(F)(F)F)cn34)n2)CC1 [IV-617, 2-(4-(2-(6-(Trifluoromethyl)imidazo[1,2-a]pyrazin-3-yl)pyrimidin-4-yl)piperazin-1-yl)ethan-1-ol]
CS(=O)(=O)N1CCN(c2cccc(-c3ccnc(-c4cnc5cnc(C(F)F)cn45)n3)n2)CC1 [IV-151, 6-(Difluoromethyl)-3-(4-(6-(4-(methylsulfonyl)piperazin-1-yl)pyridin-2-yl)pyrimidin-2-yl)imidazo[1,2-a]pyrazine]
FC(F)(F)c1cn2c(-c3nccc(N4CCCC(c5ncccn5)C4)n3)cnc2cn1 (centres unmarked) [IV-719]
C[C@H]1CN(c2ccnc(-c3cnc4cnc(C(F)(F)F)cn34)n2)C[C@@H](c2nc(C3CC3)no2)O1 [IV-718]
CC(C)(C)OC(=O)N1CCC2(CC1)CCN(c1ccnc(-c3cnc4cnc(C(F)F)cn34)n1)C2 [IV-133, tert-Butyl 2-(2-(6-(difluoromethyl)imidazo[1,2-a]pyrazin-3-yl)pyrimidin-4-yl)-2,8-diazaspiro[4.5]decane-8-carboxylate]
N#CCC1CCCN(c2ccnc(-c3cnc4cnc(C(F)(F)F)cn34)n2)C1 (centres unmarked) [IV-514, 2-(1-(2-(6-(Trifluoromethyl)imidazo[1,2-a]pyrazin-3-yl)pyrimidin-4-yl)piperidin-3-yl)acetonitrile]
CN1CCN(c2ccnc(-c3cnc4cnc(C(F)(F)F)cn34)n2)CC1C(N)=O (centres unmarked) [IV-596, 1-Methyl-4-(2-(6-(trifluoromethyl)imidazo[1,2-a]pyrazin-3-yl)pyrimidin-4-yl)piperazine-2-carboxamide]
FC(F)(F)c1cn2c(-c3nccc(N4CCCC(C5CCOC5)C4)n3)cnc2cn1 (single isomer, unassigned) [IV-544, 3-(4-(3-(Tetrahydrofuran-3-yl)piperidin-1-yl)pyrimidin-2-yl)-6-(trifluoromethyl)imidazo[1,2-a]pyrazine]
FC(F)(F)c1cn2c(-c3nccc(-c4cnn(C5CCOCC5)c4)n3)cnc2cn1 [IV-448, 3-(4-(1-(Tetrahydro-2H-pyran-4-yl)-1H-pyrazol-4-yl)pyrimidin-2-yl)-6-(trifluoromethyl)imidazo[1,2-a]pyrazine]
Cc1c[nH]nc1C1CN(c2ccnc(-c3cnc4cnc(C(F)(F)F)cn34)n2)CCO1 (centres unmarked) [IV-657, 2-(4-Methyl-1H-pyrazol-3-yl)-4-(2-(6-(trifluoromethyl)imidazo[1,2-a]pyrazin-3-yl)pyrimidin-4-yl)morpholine]
O=C1NC(=O)C2(CCN(c3ccnc(-c4cnc5cnc(C(F)(F)F)cn45)n3)C2)N1 (centres unmarked) [IV-560, 7-(2-(6-(Trifluoromethyl)imidazo[1,2-a]pyrazin-3-yl)pyrimidin-4-yl)-1,3,7-triazaspiro[4.4]nonane-2,4-dione]
CS(=O)(=O)NCC(=O)Nc1cccc(-c2ccnc(-c3cnc4cnc(C(F)F)cn34)n2)c1 [IV-173, N-(3-(2-(6-(Difluoromethyl)imidazo[1,2-a]pyrazin-3-yl)pyrimidin-4-yl)phenyl)-2-(methylsulfonamido)acetamide]
Cc1nc(C2CN(c3ccnc(-c4cnc5cnc(C(F)(F)F)cn45)n3)CCO2)n[nH]1 (centres unmarked) [IV-661, 2-(5-Methyl-1H-1,2,4-triazol-3-yl)-4-(2-(6-(trifluoromethyl)imidazo[1,2-a]pyrazin-3-yl)pyrimidin-4-yl)morpholine]
CC1C(c2cn[nH]c2)CC(P(C)(C)=O)CN1c1ccnc(-c2cnc3cnc(C(F)(F)F)cn23)n1 (centres unmarked) [IV-697, Dimethyl(6-methyl-5-(1H-pyrazol-4-yl)-1-(2-(6-(trifluoromethyl)imidazo[1,2-a]pyrazin-3-yl)pyrimidin-4-yl)piperidin-3-yl)phosphine oxide]
CS(=N)(=O)CC1CCCN(c2ccnc(-c3cnc4cnc(C(F)F)cn34)n2)C1 (single isomer, unassigned) [IV-339, ((1-(2-(6-(Difluoromethyl)imidazo[1,2-a]pyrazin-3-yl)pyrimidin-4-yl)piperidin-3-yl)methyl)(imino)(methyl)-λ^6-sulfanone]

same assay, conditions: compounds of Formula II; 280 μM ATP, 4 nM GCN2 kinase

Ki, < 10 nM:
COCCOC1CC(CNS(C)(=O)=O)CN(c2cc(-c3cnc4ccc(C(F)F)nn34)ncn2)C1 (centres unmarked) [II-550, N-((1-(6-(6-(Difluoromethyl)imidazo[1,2-b]pyridazin-3-yl)pyrimidin-4-yl)-5-(2-methoxyethoxy)piperidin-3-yl)methyl)methanesulfonamide]

Ki, 10 to 1000 nM:
CC1C(CN=S(C)(C)=O)CCCN1c1cc(-c2cnc3ccc(C(F)F)nn23)ncn1 (centres unmarked) [II-584, (((1-(6-(6-(Difluoromethyl)imidazo[1,2-b]pyridazin-3-yl)pyrimidin-4-yl)-2-methylpiperidin-3-yl)methyl)imino)dimethyl-λ^6-sulfanone]
CCC1COC(CNS(C)(=O)=O)CN1c1cc(-c2cnc3ccc(C(F)F)nn23)ncn1 (centres unmarked) [II-269, N-((4-(6-(6-(Difluoromethyl)imidazo[1,2-b]pyridazin-3-yl)pyrimidin-4-yl)-5-ethylmorpholin-2-yl)methyl)methanesulfonamide]
CC1(C)CN(c2cc(-c3cnc4ccc(C(F)F)nn34)ncn2)CC(CNS(C)(=O)=O)N1 (centres unmarked) [II-569, N-((4-(6-(6-(Difluoromethyl)imidazo[1,2-b]pyridazin-3-yl)pyrimidin-4-yl)-6,6-dimethylpiperazin-2-yl)methyl)methanesulfonamide]
CC1CC(N=S(C)(=O)C2CC2)CN(c2cc(-c3cnc4ccc(C(F)F)nn34)ncn2)C1 (single isomer, unassigned) [II-646, Cyclopropyl((1-(6-(6-(difluoromethyl)imidazo[1,2-b]pyridazin-3-yl)pyrimidin-4-yl)-5-methylpiperidin-3-yl)imino)(methyl)-λ^6-sulfanone]
CC1C(CO)CCCN1c1cc(-c2cnc3ccc(C(F)F)nn23)ncn1 (centres unmarked) [II-555, (1-(6-(6-(Difluoromethyl)imidazo[1,2-b]pyridazin-3-yl)pyrimidin-4-yl)-2-methylpiperidin-3-yl)methanol]
CC(C)(O)C1CCCN(c2cc(-c3cnc4ccc(C(F)F)nn34)ncn2)C1 (centres unmarked) [II-608, 2-(1-(6-(6-(Difluoromethyl)imidazo[1,2-b]pyridazin-3-yl)pyrimidin-4-yl)piperidin-3-yl)propan-2-ol]
N#CC1CN(c2cc(-c3cnc4ccc(C(F)(F)F)nn34)ncn2)CCO1 (centres unmarked) [II-533, 4-(6-(6-(Trifluoromethyl)imidazo[1,2-b]pyridazin-3-yl)pyrimidin-4-yl)morpholine-2-carbonitrile]

IC50, 10 to 1000 nM:
Cc1nn(C)cc1C1CN(c2cc(-c3cnc4ccc(C(F)(F)F)nn34)ncn2)C[C@@H](C)O1 (stereo in doubt) [II-760, (2R,6R)-2-(1,3-dimethyl-1H-pyrazol-4-yl)-6-methyl-4-(6-(6-(trifluoromethyl)imidazo[1,2-b]pyridazin-3-yl)pyrimidin-4-yl)morpholine]

IC50, > 1000 nM:
Cc1nn(C)cc1[C@H]1CN(c2cc(-c3cnc4ccc(C(F)(F)F)nn34)ncn2)C[C@H](C)O1 [II-758, (2S,6S)-2-(1,3-dimethyl-1H-pyrazol-4-yl)-6-methyl-4-(6-(6-(trifluoromethyl)imidazo[1,2-b]pyridazin-3-yl)pyrimidin-4-yl)morpholine]

same assay, conditions: compounds of Formula III; 280 μM ATP, 4 nM GCN2 kinase

Ki, > 1000 nM:
c1ccc(-c2cc(-c3cnn4cccnc34)ccn2)cc1 [III-15, 3-(2-phenylpyridin-4-yl)pyrazolo[1,5-a]pyrimidine]

same assay, conditions: compounds of Formula V; 280 μM ATP, 4 nM GCN2 kinase

Ki, 100 to 1000 nM:
C[C@@H]1CN(c2ccnc(-c3cnc4sc(C(F)F)cn34)n2)C[C@H](CNS(C)(=O)=O)C1(F)F (stereo in doubt) [Compound V-2, N-((-1-(2-(2-(difluoromethyl)imidazo[2,1-b]thiazol-5-yl)pyrimidin-4-yl)-4,4-difluoro-5-methylpiperidin-3-yl)methyl)methanesulfonamide]
